Laboratory results taken from patent US20240327364A1, “THERAPEUTIC TARGETING OF GPR68 TO INDUCE FERROPTOSIS” (University Of Maryland, Baltimore, priority 2023, published 2024).

What was measured:
T-47D = test: Cell Titer-Glo viability, Breast cancer; format: cell-based
Protocol: (§1) OGM2 kills wide variety of cancer cell types. Cell sensitivity can be classified in to Very Sensitive (LC50<2 μM), Sensitive (LC50=2 to 10 μM), Mildly Sensitive (LC50>10 μM), and Refractory (no killing at 10 μM). The listed established cell were incubated with OGM2 at 2 μM or 10 μM for 72 hours under standard cell culture conditions, and relative cell number was assessed using Cell Titer-Glo Luminescent Cell Viability Assay (Promega™) following the manufacturer's instructions. Luminescence was determined using a Cytation 5 reader and Gen5 software package (BioTek™).
(§2) Cancer cells, which are very sensitive to killing by OGM2 (LCs <2 μM), with reported mRNA expression of GPR68 and the related proton sensing receptor GPR4. LC50's (concentrations causing 50% lethality) were determined using CellTiter-Glo (Promega™, G7570). Cells were plated in 12-well plates (CELLTREAT Scientific Products, 229112) in 1 ml of DMEM with high glucose, GlutaMAX, HEPES, or RPMI 1640 with Penicillin-Streptomycin (ThermoFisher™, 10564029, 11875119 and 15140122) and 10% FBS. Cells were incubated overnight at 37° C. in 5% CO2. Then 1 mL of fresh media was added with DMSO, OGM, or positive control (Erastin; APExBIO Technology, LLC, B1524) and cells incubated for 3 days. On the third day, all media was removed, cells were rinsed with 1×PBS, PBS was removed, and 200 μL of 1× Passive Lysis Buffer (Promega™, E1941) was added to each well. […]. Subsequently, 20 μL of lysate was added to 100 μL CellTiter-Glo™ reagent on a LUMITRAC 200 plate (Greiner™ bio-one, 82050-726). Plates were briefly spun down and read on a GloMax-Multi Detection System (Promega™).
(§3) The cells listed in the tables above were incubated with OGM2 at 2 μM or 10 μM for 72 hours under standard cell culture conditions, and relative cell number was assessed using Cell Titer-Glo Luminescent Cell Viability Assay (Promega™) following the manufacturer's instructions. Luminescence was determined using a Cytation 5 reader and Gen5 software package (BioTek™). RNA expression of GPR68 and GPR4 in the corresponding cancer cell lines are listed, according to the publicly available The Human Protein Atlas version 22.0 and Ensembl version 103.38 (see proteinatlas.org). The consensus normalized expression value (“nTPM”=normalize transcript per million) was calculated as the maximum nTPM value for each gene in the two data sources.

THP-1 = test: Cell Titer-Glo viability, Acute monocytic leukemia; format: cell-based; details: 72 hours
Protocol: as §1, §2, §3

MOLM-14 = test: Cell Titer-Glo viability, Acute monocytic leukemia; format: cell-based
Protocol: as §1, §2, §3

CXCR5 = target: T1, CXCR5 (Homo sapiens, UniProt P32302); test: GPCR Profiler; format: cell-based
T1 construct: host or cells: Chem-1 cells with Gα15

DP = target: T2, DP (Homo sapiens, UniProt Q13258); test: GPCR Profiler; format: cell-based
T2 construct: host or cells: Chem-1 cells expressing Gα15

H1 = target: T3, H1 (Homo sapiens, UniProt P35367); test: GPCR Profiler; format: cell-based
T3 construct: host or cells: Chem-1 cells with promiscuous Gα15

PFTAIRE2 = target: T4, PFTAIRE2 (Homo sapiens, UniProt Q96Q40); test: KinomeScan; format: binding; details: read-out: % Control
T4 construct: purchased DiscoveRx (Fremont, CA)

MEK3 = target: T5, MEK3 (Homo sapiens, UniProt P46734); test: KinomeScan; format: binding; details: read-out: % Control
T5 construct: purchased DiscoveRx (Fremont, CA)

TAK1 = target: T6, TAK1 (Homo sapiens, UniProt O43318); test: KinomeScan; format: binding; details: read-out: % Control
T6 construct: purchased DiscoveRx (Fremont, CA)

PAK3 = target: T7, PAK3 (Homo sapiens, UniProt O75914); test: KinomeScan; format: binding; details: read-out: % Control
T7 construct: purchased DiscoveRx

GLP-2 = target: T8, GLP-2 (Homo sapiens, UniProt O95838); test: GPCR Profiler; format: cell-based
T8 construct: host or cells: Chem-1 cells expressing Gα15

OPRK1 = target: T9, OPRK1 (Homo sapiens, UniProt P41145); test: GPCR Profiler; format: cell-based
T9 construct: host or cells: Chem-1 cells expressing Gα15

PAK2 = target: T10, PAK2 (Homo sapiens, UniProt Q13177); test: KinomeScan; format: binding; details: read-out: % Control
T10 construct: purchased DiscoveRx

CCR3 = target: T11, CCR3 (Homo sapiens, UniProt P51677); test: GPCR Profiler; format: cell-based
T11 construct: host or cells: Chem-1 cells with Gα15

ERK5 = target: T12, ERK5 (Homo sapiens, UniProt Q13164); test: KinomeScan; format: binding; details: read-out: % Control
T12 construct: purchased DiscoveRx (Fremont, CA)

p38-alpha = target: T13, p38-alpha (Homo sapiens, UniProt Q16539); test: KinomeScan; format: binding; details: read-out: % Control
T13 construct: purchased DiscoveRx

DYRK2 = target: T14, DYRK2 (Homo sapiens, UniProt Q92630); test: KinomeScan; format: binding; details: read-out: % Control
T14 construct: purchased DiscoveRx (Fremont, CA), KinomeScan service

CCR10 = target: T15, CCR10 (Homo sapiens, UniProt P46092); test: GPCR Profiler; format: cell-based
T15 construct: host or cells: Chem-1 cells with Gα15

CAMKK1 = target: T16, CAMKK1 (Homo sapiens, UniProt Q8N5S9); test: KinomeScan; format: binding; details: read-out: % Control
T16 construct: purchased DiscoveRx (KinomeScan service)

Secretin = target: T17, Secretin (Homo sapiens, UniProt P47872); test: GPCR Profiler; format: cell-based
T17 construct: host or cells: Chem-1 cells with Gα15

[1] = target: T18, TYK2(JH1domain-catalytic) (Homo sapiens, UniProt P29597); test: KinomeScan; format: binding; details: read-out: % Control
T18 construct: TYK2(JH1domain-catalytic); purchased DiscoveRx

CGRP1 = target: T19, CGRP1 (Homo sapiens, UniProt O60894+Q16602); test: GPCR Profiler; format: cell-based
T19 construct: host or cells: Chem-1 cells with Gα15
T19 sequence (Q16602 23-461): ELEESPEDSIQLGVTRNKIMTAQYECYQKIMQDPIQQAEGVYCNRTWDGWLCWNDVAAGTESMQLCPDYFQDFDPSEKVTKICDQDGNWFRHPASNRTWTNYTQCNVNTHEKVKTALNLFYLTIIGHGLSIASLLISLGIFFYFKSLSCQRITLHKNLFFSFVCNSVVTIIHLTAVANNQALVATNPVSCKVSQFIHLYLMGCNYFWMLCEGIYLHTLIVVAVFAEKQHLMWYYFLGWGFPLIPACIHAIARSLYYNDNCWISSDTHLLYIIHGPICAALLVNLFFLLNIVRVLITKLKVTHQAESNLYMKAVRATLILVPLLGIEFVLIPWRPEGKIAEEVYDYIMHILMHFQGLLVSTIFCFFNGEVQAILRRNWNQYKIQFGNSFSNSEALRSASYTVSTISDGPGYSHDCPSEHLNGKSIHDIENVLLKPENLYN
T19 sequence (O60894 27-148 partner): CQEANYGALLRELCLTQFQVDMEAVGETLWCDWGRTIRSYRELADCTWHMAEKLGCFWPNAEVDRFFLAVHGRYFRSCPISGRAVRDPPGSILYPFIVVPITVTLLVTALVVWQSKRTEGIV

T15 sequence (P46092 whole entry): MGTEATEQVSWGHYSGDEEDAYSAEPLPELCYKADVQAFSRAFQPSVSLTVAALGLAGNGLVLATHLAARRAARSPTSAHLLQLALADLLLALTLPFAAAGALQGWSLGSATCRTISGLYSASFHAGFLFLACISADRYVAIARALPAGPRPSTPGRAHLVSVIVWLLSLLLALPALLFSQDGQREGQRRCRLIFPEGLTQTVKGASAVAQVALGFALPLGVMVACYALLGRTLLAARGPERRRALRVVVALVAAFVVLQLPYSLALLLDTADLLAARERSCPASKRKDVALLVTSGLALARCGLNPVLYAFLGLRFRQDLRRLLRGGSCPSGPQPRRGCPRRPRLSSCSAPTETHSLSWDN
T2 sequence (Q13258 whole entry): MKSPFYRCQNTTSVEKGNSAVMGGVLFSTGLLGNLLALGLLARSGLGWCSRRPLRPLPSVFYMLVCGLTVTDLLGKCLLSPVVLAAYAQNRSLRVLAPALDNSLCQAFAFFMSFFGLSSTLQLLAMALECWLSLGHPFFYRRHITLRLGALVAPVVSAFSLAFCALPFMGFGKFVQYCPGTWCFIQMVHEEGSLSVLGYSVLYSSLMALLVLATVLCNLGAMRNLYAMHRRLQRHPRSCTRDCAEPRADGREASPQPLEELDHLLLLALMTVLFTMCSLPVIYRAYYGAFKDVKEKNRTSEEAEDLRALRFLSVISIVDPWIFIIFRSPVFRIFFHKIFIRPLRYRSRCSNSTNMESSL
T11 sequence (P51677 whole entry, species assumed): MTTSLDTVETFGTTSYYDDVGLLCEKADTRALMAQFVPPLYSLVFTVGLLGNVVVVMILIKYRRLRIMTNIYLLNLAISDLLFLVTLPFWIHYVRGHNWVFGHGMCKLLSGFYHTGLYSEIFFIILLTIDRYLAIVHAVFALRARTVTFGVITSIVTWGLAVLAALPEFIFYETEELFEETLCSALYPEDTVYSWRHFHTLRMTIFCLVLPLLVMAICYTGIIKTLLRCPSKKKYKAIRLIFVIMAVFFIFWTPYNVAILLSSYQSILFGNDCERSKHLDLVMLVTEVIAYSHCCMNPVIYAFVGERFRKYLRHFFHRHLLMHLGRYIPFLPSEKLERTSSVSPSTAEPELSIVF
T9 sequence (P41145 whole entry, species assumed): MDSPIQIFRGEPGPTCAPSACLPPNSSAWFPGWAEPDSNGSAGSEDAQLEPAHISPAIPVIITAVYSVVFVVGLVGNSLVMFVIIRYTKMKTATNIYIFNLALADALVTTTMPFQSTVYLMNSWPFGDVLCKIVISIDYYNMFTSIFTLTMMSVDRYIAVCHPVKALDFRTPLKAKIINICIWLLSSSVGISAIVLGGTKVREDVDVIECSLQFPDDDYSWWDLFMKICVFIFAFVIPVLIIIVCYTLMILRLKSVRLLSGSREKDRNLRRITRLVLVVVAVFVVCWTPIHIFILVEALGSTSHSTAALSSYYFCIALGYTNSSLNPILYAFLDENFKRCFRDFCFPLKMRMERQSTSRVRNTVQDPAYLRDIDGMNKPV
T3 sequence (P35367 whole entry): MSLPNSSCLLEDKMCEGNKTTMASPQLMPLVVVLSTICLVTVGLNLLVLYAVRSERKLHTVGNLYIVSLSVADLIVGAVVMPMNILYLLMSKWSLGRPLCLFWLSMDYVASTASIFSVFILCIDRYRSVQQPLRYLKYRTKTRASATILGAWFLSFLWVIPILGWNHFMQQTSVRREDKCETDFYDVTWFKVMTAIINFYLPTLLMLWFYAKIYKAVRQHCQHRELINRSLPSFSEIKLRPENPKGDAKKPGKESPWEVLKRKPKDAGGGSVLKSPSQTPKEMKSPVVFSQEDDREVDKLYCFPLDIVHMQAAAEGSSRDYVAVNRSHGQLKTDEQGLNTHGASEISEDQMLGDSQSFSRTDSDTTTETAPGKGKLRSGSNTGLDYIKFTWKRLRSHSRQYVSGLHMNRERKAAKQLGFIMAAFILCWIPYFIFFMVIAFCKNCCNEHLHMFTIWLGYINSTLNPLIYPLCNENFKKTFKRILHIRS
T17 sequence (P47872 23-440): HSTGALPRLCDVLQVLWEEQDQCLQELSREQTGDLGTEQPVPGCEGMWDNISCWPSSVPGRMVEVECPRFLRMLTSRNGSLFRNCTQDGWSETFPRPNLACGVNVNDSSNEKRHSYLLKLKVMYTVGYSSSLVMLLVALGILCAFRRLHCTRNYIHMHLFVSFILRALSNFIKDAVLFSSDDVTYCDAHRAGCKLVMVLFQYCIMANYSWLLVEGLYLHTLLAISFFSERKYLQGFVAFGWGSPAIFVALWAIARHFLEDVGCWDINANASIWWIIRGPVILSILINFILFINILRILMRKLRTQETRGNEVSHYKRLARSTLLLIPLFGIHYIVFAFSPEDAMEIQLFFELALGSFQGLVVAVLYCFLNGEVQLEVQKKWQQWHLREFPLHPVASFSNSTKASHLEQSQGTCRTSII
T1 sequence (P32302 whole entry, species assumed): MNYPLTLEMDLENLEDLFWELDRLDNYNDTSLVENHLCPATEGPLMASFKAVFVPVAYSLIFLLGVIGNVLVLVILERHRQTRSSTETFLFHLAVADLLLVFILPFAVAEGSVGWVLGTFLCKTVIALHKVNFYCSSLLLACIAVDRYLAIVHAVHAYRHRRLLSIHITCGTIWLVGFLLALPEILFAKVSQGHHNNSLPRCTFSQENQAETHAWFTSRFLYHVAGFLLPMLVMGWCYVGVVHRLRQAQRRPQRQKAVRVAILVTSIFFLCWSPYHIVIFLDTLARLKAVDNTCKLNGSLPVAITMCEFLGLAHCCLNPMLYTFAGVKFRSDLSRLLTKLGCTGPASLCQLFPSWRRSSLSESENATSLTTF
T8 sequence (O95838 whole entry): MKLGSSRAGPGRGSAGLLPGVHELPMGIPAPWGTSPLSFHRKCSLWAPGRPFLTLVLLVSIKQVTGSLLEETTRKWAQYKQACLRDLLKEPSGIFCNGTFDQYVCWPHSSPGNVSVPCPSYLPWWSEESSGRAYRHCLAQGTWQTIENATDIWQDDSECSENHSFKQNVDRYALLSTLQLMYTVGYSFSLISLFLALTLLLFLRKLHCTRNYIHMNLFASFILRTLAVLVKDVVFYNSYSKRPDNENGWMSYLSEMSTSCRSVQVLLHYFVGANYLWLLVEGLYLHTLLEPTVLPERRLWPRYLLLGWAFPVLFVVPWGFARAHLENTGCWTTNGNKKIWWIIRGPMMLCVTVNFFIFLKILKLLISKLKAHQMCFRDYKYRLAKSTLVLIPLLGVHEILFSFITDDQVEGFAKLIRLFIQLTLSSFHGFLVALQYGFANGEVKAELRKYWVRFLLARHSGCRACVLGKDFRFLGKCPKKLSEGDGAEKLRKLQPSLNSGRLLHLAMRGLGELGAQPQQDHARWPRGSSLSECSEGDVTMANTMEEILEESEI
T13 sequence (Q16539 whole entry): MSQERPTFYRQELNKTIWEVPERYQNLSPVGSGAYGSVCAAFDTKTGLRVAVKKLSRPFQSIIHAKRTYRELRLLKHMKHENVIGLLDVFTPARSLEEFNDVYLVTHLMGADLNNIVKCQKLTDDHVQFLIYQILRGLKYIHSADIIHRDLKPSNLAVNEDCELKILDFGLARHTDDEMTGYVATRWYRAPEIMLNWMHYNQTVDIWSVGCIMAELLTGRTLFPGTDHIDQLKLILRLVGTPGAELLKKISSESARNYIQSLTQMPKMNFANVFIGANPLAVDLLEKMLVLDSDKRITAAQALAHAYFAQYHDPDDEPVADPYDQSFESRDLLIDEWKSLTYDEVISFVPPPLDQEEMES
T10 sequence (Q13177 whole entry): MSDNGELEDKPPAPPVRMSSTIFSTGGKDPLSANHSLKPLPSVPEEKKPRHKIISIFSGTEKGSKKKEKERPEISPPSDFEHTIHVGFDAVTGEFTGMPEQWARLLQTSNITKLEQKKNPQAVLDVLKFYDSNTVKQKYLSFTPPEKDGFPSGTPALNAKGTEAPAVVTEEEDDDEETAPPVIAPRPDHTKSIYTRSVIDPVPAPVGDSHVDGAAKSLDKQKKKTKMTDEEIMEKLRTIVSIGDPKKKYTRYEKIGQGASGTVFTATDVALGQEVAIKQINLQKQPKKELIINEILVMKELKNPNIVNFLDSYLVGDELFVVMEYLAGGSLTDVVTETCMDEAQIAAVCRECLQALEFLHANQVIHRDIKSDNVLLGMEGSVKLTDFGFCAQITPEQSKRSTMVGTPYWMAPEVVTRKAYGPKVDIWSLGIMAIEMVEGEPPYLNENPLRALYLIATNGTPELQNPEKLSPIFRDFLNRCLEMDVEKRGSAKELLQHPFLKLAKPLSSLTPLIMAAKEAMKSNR

SMILES: CCc1ccc2c(c1)C1(NN=C(c3ccccc3)S1)C(=O)N2 (stereo not drawn) [OGM2]
- Class (T-47D): Mildly
- % Survival 2 μM OGM (T-47D; 72 hours): 76.4%
- % Survival 10 μM OGM (T-47D; 72 hours): 61.7%
- CC50 (T-47D; Homo sapiens, T47D, 72 hours, read-out: LC50 (the source's name)): > 10 µM
- % Survival 2 μM OGM (THP-1): 33.0%
- % Survival 10 μM OGM (THP-1): 9.4%
- CC50 (THP-1; Homo sapiens, THP-1, read-out: LC50 (the source's name)): < 2 µM
- Class (MOLM-14): Sensitive (Sensitive (LC50=2 to 10 μM))
- % Survival 2 μM OGM (MOLM-14; 72 hours): 65.3%
- % Survival 10 μM OGM (MOLM-14; 72 hours): 15.3%
- CC50 (MOLM-14; Homo sapiens, MOLM-14, 72 hours, read-out: LC50 (the source's name)): 2 to 10 µM

SMILES: CCc1ccc2c(c1)C1(NN=C(c3cccc4ccccc34)S1)C(=O)N2 (stereo not drawn) [OGM1, 5-ethyl-5′-naphthalen-1-ylspiro[1H-indole-3,2′-3H-1,3,4-thiadiazole]-2-one]
- Antagonism (CXCR5; 10 uM): −2
- Agonism (CXCR5; 12.5 uM): 0.9
- Antagonism (DP; 10 uM): −11.7
- Agonism (DP; 12.5 uM): 0.8
- Antagonism (H1; 10 uM): −17.2
- Agonism (H1; 12.5 uM): 2.1
- remaining binding at 10 µM (PFTAIRE2): 93%
- remaining binding at 10 µM (MEK3): 100%
- remaining binding at 10 µM (TAK1): 72%
- remaining binding at 10 µM (PAK3): 93%
- Antagonism (GLP-2; 10 uM): 2.1
- Agonism (GLP-2; 12.5 uM): −0.2
- Antagonism (OPRK1; 10 uM): −8.1
- Agonism (OPRK1; 12.5 uM): 4.3
- remaining binding at 10 µM (PAK2): 72%
- Antagonism (CCR3; 10 uM): −9.9
- Agonism (CCR3; 12.5 uM): 0.8
- remaining binding at 10 µM (ERK5): 89%
- remaining binding at 10 µM (p38-alpha): 54%
- remaining binding at 10 µM (DYRK2): 91%
- Antagonism (CCR10; 10 uM): −16.7
- Agonism (CCR10; 12.5 uM): −0.2
- remaining binding at 10 µM (CAMKK1): 86%
- Antagonism (Secretin; 10 uM): 1.7
- Agonism (Secretin; 12.5 uM): 0.9
- remaining binding at 10 µM [1]: 77%
- Antagonism (CGRP1; 10 uM): −2.3
- Agonism (CGRP1; 12.5 uM): 0.5
